Data: the NIST ThermoML archive (doi:10.1021/acs.jced.5b00820)

Experiment: refractive index (Na D-line) (dimensionless); xn = mol fraction of the nth substance listed
Details: 102.2 kPa, Liquid, Standard Abbe refractometry

C[Si](C)(O[Si](C)(C)c1ccccc1)c1ccccc1 [1,3-diphenyltetramethyldisiloxane] + C[Si]1(CCC(F)(F)F)O[Si](C)(CCC(F)(F)F)O[Si](C)(CCC(F)(F)F)O1
refractive index
Details | 308.15 K | 313.15 K | 318.15 K | 323.15 K | 328.15 K
x1 = 0.0501 | 1.36577 | 1.36376 | 1.36177 | 1.35973 | 1.3577
x1 = 0.1001 | 1.37152 | 1.36949 | 1.36745 | 1.36544 | 1.36339
x1 = 0.1499 | 1.37745 | 1.37541 | 1.37337 | 1.37133 | 1.36931
x1 = 0.2005 | 1.38359 | 1.38155 | 1.3795 | 1.37746 | 1.37541
x1 = 0.2497 | 1.38975 | 1.38769 | 1.38565 | 1.38355 | 1.38148
x1 = 0.3 | 1.39624 | 1.39416 | 1.39207 | 1.39 | 1.38792
x1 = 0.3431 | 1.40191 | 1.39984 | 1.39775 | 1.39565 | 1.3936
x1 = 0.4001 | 1.40958 | 1.40754 | 1.40546 | 1.40337 | 1.40125
x1 = 0.45 | 1.41665 | 1.41456 | 1.41246 | 1.41033 | 1.40824
x1 = 0.4998 | 1.42386 | 1.42173 | 1.41969 | 1.4175 | 1.41538
x1 = 0.5482 | 1.43101 | 1.42892 | 1.42678 | 1.42465 | 1.42246
x1 = 0.5996 | 1.43889 | 1.43676 | 1.43456 | 1.43246 | 1.43032
x1 = 0.6501 | 1.44686 | 1.44469 | 1.44253 | 1.44035 | 1.43816
x1 = 0.7 | 1.45499 | 1.45282 | 1.45064 | 1.44846 | 1.44627
x1 = 0.75 | 1.4634 | 1.4612 | 1.459 | 1.45683 | 1.4546
x1 = 0.8001 | 1.4721 | 1.46989 | 1.46772 | 1.4655 | 1.46326
x1 = 0.8499 | 1.48104 | 1.47886 | 1.47659 | 1.47441 | 1.47215
x1 = 0.8998 | 1.49033 | 1.48806 | 1.48584 | 1.48362 | 1.48135
x1 = 0.95 | 1.5001 | 1.49782 | 1.49555 | 1.49332 | 1.49106
x1 = 1 | 1.51009 | 1.50782 | 1.50561 | 1.50332 | 1.501
